In patent US20170079966A1, “INHIBITION OF TUMOR CELL INTERACTIONS WITH THE MICROENVIRONMENT RESULTING IN A REDUCTION IN TUMOR GROWTH AND DISEASE PROGRESSION” (Deciphera Pharmaceuticals, LLC, priority 2014, published 2017):
Like-named read-outs stand apart in the source and are kept apart here.

Experiments:
[1] = tested on: HMVEC capillary tube formation; test: HMVEC capillary tube formation; format: cell-based; conditions: Homo sapiens
Description: Growth factor reduced Matrigel gel solution (BD Biosciences, San Jose, Calif.) was dispensed using pre-chilled tips into each well of a pre-chilled 96-well black, clear bottom, tissue-culture treated plate. The plate was incubated at 37° C. for 1 h to allow the matrix to form a gel. […] The cell/Compound 1 suspensions were then transferred to the Matrigel plate wells and incubated overnight. The final concentration of DMSO in the assay was 0.5%. The next day, cells were stained with Calcein-AM dye (Life Technologies). Images obtained via fluorescent microscopy were analyzed for tube length using ImagePro Analyzer (Media Cybernetics, Rockville, Md.) with a macro to automatically detect and measure tube formation.

SKOV-3 = SKOV-3 ovarian xenograft model; conditions: in vivo
B16/F10 cells = test: B16/F10 metastatic melanoma model; conditions: Compound 1 15 mg/kg
TIE2 = TIE2 (Homo sapiens, UniProt Q02763); test: Phospho-TIE2 Western blot in TIE2 expressing CHO-K1 cells; format: cell-based; set-up: expressed in transfected cells; host or cells: CHO-K1 (ATCC CCL-61), transient transfection; conditions: CHO cells transiently expressing TIE2; 4 hours; read-out: IC50, inhibiting the constitutive phosphorylation of TIE2
Sequence of TIE2 (Q02763 23-1124, species assumed): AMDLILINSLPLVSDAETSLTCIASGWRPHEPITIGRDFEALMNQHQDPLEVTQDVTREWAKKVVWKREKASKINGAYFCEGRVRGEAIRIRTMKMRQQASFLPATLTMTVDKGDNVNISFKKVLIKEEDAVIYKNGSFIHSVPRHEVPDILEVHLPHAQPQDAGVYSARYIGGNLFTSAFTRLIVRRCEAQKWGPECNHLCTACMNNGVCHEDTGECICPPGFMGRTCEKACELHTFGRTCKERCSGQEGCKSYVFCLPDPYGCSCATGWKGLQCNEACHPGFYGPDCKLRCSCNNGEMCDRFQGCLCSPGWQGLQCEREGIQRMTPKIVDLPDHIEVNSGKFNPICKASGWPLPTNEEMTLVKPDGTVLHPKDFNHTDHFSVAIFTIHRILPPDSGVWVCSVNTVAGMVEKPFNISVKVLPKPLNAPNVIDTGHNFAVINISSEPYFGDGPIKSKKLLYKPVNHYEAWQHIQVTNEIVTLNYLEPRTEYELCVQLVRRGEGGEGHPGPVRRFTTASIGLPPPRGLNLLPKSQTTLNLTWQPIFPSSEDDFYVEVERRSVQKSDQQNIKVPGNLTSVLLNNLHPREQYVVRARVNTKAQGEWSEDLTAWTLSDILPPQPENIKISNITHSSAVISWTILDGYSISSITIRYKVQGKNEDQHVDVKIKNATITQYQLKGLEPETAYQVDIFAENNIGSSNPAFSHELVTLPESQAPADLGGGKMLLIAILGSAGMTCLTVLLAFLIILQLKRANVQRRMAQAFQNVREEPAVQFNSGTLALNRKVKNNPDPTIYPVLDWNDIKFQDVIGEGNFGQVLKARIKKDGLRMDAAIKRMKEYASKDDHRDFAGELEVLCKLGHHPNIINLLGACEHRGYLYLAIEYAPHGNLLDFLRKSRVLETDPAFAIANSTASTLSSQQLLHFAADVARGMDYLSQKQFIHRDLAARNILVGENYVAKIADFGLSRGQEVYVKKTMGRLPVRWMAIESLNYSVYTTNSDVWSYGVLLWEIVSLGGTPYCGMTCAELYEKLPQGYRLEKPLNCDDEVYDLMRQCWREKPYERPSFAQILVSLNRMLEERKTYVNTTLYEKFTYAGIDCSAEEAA
Description: Briefly, cells were grown in F12K medium supplemented with 10% characterized fetal bovine serum (Invitrogen, Carlsbad, Calif.), 100 units/mL penicillin G, 100 μg/ml streptomycin, and 0.29 mg/mL L-glutamine (Invitrogen, Carlsbad, Calif.) at 37 degrees Celsius, 5% CO2, and 95% humidity.
CHO K1 cells (1×10^5 cells/well) were added to a 24-well tissue-culture treated plate in 1 mL of RPMI1640 medium supplemented with 10% characterized fetal bovine serum and 1× non-essential amino acids (Invitrogen, Carlsbad, Calif.). Cells were then incubated overnight at 37 degrees Celsius, 5% CO2, and 95% humidity. Medium was aspirated, and 0.5 mL of medium was added to each well. Transfection-grade plasmid DNA (TIE2 gene Gateway cloned into pcDNA3.2™/V5-DEST expression vector, Invitrogen, Carlsbad, Calif.) was diluted to 5 μg/mL in room temperature Opti-MEM® I Medium without serum (Invitrogen, Carlsbad, Calif.). Two μL of Lipofectamine LTX Reagent (Invitrogen, Carlsbad, Calif.) was added per 0.5 μg of plasmid DNA. […] Fluorescence was detected using a Storm 840 phosphorimager (GE Healthcare, Piscataway, N.J.) in fluorescence mode. […] The 160 kDa phospho-TIE2 and total TIE2 bands were quantified using ImageQuant software (GE Healthcare, Piscataway, N.J.), and data was plotted using Prism software (GraphPad Software, San Diego, Calif.).

With `O=C(Nc1cc(Oc2cc(F)c(NC(=O)C3(C(=O)Nc4ccc(F)cc4)CC3)cc2F)ccn1)C1CC1` [Compound 1, N-(4-(2-(cyclopropanecarboxamido)pyridin-4-yloxy)-2,5-difluorophenyl)-N′-(4-fluorophenyl)cyclopropane-1,1-dicarboxamide] the IC50 ([1]; 40 ng/mL HGF, read-out: IC50, capillary tube formation upon stimulation with HGF) was 11 nM, the IC50 ([1]; 100 ng/mL VEGF, read-out: IC50, capillary tube formation upon stimulation with VEGF) was 58 nM and the IC50 ([1]; 200 ng/mL ANG2, read-out: IC50, capillary tube formation upon stimulation with ANG2) was 7 nM. For the same molecule, the SKOV-3 tumor growth (SKOV-3) was “only weakly inhibited”, the T-C (B16/F10 cells) was > 4.3 days and the “Treated animals with metastases on Day 21 (ex vivo BLI)” value (B16/F10 cells; 2/12 animals) was 16.6%. For the same molecule, the “Inhibition of the development of pulmonary metastases” value (B16/F10 cells; Day 21) was 72%, the “% T/C, tumor growth on Day 21” value (B16/F10 cells; treatment from Day 0) was 30% and the IC50 (TIE2) was 2.4 nM.
